The assay addresses MAPK14 (UniProt Q16539). Briefly: Inhibition of MAPK14 Kinase Activity.

Molecules are shown by their SMILES.

MAPK14, sequence (Q16539 whole entry, looked up): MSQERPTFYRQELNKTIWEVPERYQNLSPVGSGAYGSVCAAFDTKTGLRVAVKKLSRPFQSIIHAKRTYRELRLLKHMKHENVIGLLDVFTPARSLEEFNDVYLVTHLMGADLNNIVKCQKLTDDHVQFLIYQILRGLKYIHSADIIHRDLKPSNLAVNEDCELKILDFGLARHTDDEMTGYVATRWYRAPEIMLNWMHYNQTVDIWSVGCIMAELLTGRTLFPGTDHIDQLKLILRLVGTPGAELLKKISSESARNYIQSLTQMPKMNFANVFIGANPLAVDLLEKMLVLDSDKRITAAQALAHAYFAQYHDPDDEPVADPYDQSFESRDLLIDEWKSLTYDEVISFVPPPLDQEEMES

Compound `COc1cc(C(=O)N[C@H](C)C(C)C)ccc1-c1cc(C(=O)NC2CC2)cc(F)c1C` displayed an IC50 below 10 µM.
In the case of `CNC(=O)CCCOc1cc(C(=O)NCC(C)(C)C)ccc1-c1cc(C(=O)NC2CC2)cc(F)c1C` it was below 10 µM; in that of `COCOc1cc(C(=O)N[C@H](C)C(C)(C)C)ccc1-c1cc(C(=O)NC2CC2)cc(F)c1C`, below 10 µM.
`Cc1ccc(C(=O)NC2CC2)cc1-c1ccc(C(=O)NCC(C)(C)C)cc1OCCCN1CCCC1` showed an IC50 below 10 µM.
`Cc1ccc(C(=O)NC2CC2)cc1-c1ccc(C(=O)NCC(C)(C)C)cc1OCCCN1CCOCC1` gave an IC50 below 10 µM.
In the case of `CCN(CC)CCCOc1cc(C(=O)NCC(C)(C)C)ccc1-c1cc(C(=O)NC2CC2)ccc1C` it was below 10 µM; in that of `Cc1ccc(C(=O)NC2CC2)cc1-c1ccc(C(=O)NCC(C)(C)C)cc1OCCCN(C)C(C)C`, below 10 µM; in that of `Cc1c(F)cc(C(=O)NC2CC2)cc1-c1ccc(C(=O)NCC(C)(C)C)cc1OCCCC(=O)N1CCOCC1`, below 10 µM.
`Cc1ccc(CNC(=O)c2ccc(-c3cc(C(=O)NC4CC4)cc(F)c3C)c(O)c2)cc1`: the IC50 was below 10 µM.
Turning to `Cc1c(F)cc(C(=O)NC2CC2)cc1-c1ccc(C(=O)NCC(C)(C)C)cc1OCCCC(N)=O`, the IC50 is below 10 µM.
In the case of `COc1cc(C(=O)NCC2CC2)ccc1-c1cc(C(=O)NC2CC2)cc(F)c1C` it was below 10 µM.
In the case of `Cc1c(F)cc(C(=O)NC2CC2)cc1-c1ccc(C(=O)N[C@H](C)C(C)(C)C)cc1O` it was below 10 µM.
In the case of `COCOc1cc(C(=O)NCC(C)(C)C)ccc1-c1cc(C(=O)NC2CC2)cc(F)c1C` it was below 10 µM; in that of `Cc1c(F)cc(C(=O)NC2CC2)cc1-c1ccc(C(=O)NCC(C)(C)C)cc1OCCCC(=O)O`, below 10 µM.
Consider `CCC(=O)Nc1cc(C(=O)NCC(C)(C)C)ccc1-c1cc(C(=O)NC2CC2)ccc1C`, for which the IC50 is below 10 µM.
In the case of `COCOc1cc(C(=O)NCC2CC2)ccc1-c1cc(C(=O)NC2CC2)cc(F)c1C` it was below 10 µM.
In the case of `COc1cc(C(=O)NCC(C)(C)C)ccc1-c1cc(C(=O)NC2CC2)cc(F)c1C` it was below 10 µM.
Take `CCNC(=O)Nc1cc(C(=O)NCC(C)(C)C)ccc1-c1cc(C(=O)NC2CC2)ccc1C`: the IC50 was below 10 µM.
In the case of `COCOc1cc(C(=O)N[C@H](C)C(C)C)ccc1-c1cc(C(=O)NC2CC2)cc(F)c1C` it was below 10 µM.
In the case of `CC(=O)Nc1cc(C(=O)NCC(C)(C)C)ccc1-c1cc(C(=O)NC2CC2)ccc1C` it was below 10 µM.
In the case of `Cc1c(F)cc(C(=O)NC2CC2)cc1-c1ccc(C(=O)NCC(C)(C)C)cc1OCCCc1nnco1` it was below 10 µM.
In turn, `Cc1c(F)cc(C(=O)NC2CC2)cc1-c1ccc(C(=O)NCC(C)(C)C)cc1OCCN1CCOCC1` had an IC50 below 10 µM.
In the case of `Cc1ccc(C(=O)NC2CC2)cc1-c1ccc(C(=O)NCC(C)(C)C)cc1NS(C)(=O)=O` it was below 10 µM.
In the case of `Cc1ccc(C(=O)NC2CC2)cc1-c1ccc(C(=O)NCC(C)(C)C)cc1N` it was below 10 µM; in that of `Cc1c(F)cc(C(=O)NC2CC2)cc1-c1ccc(C(=O)NCC(C)(C)C)cc1CNCC(C)(C)C`, below 10 µM.
`Cc1ccc(C(=O)NC2CC2)cc1-c1ccc(C(=O)NCC(C)(C)C)cc1OCC(O)CO` (stereo not drawn) displayed a half-maximal inhibitory concentration (IC50) below 10 µM.
In the case of `Cc1c(F)cc(C(=O)NC2CC2)cc1-c1ccc(C(=O)NCC(C)(C)C)cc1CO` it was below 10 µM; in that of `Cc1c(F)cc(C(=O)NC2CC2)cc1-c1ccc(C(=O)NCC(C)C)cc1O`, below 10 µM; in that of `Cc1ccc(C(=O)NC2CC2)cc1-c1ccc(C(=O)NCC(C)(C)C)cc1OCCCNC(C)C`, below 10 µM.
In the case of `Cc1c(F)cc(C(=O)NC2CC2)cc1-c1ccc(C(=O)NCC(C)(C)C)cc1OCCCC(=O)N1CCCC1` it was below 10 µM; in that of `Cc1c(F)cc(C(=O)NC2CC2)cc1-c1ccc(C(=O)NCC(C)(C)C)cc1OCCNS(C)(=O)=O`, below 10 µM; in that of `Cc1c(F)cc(C(=O)NC2CC2)cc1-c1ccc(C(=O)NCC2CC2)cc1OCCN(C)C`, below 10 µM.
In the case of `CCCOc1cc(C(=O)NCC(C)(C)C)ccc1-c1cc(C(=O)NC2CC2)cc(F)c1C` it was below 10 µM.
`Cc1c(F)cc(C(=O)NC2CC2)cc1-c1ccc(C(=O)NCC(C)(C)C)cc1OCCCCO` returned an IC50 below 10 µM.
In the case of `COCOc1cc(C(=O)NCC(C)C)ccc1-c1cc(C(=O)NC2CC2)cc(F)c1C` it was below 10 µM; in that of `COc1ccc(CNC(=O)c2ccc(-c3cc(C(=O)NC4CC4)cc(F)c3C)c(O)c2)cc1`, below 10 µM.
In the case of `COc1ccc(CNC(=O)c2ccc(-c3cc(C(=O)NC4CC4)cc(F)c3C)c(OC)c2)cc1` it was below 10 µM; in that of `Cc1c(F)cc(C(=O)NC2CC2)cc1-c1ccc(C(=O)NCC(C)(C)C)cc1OCC(=O)N1CCOCC1`, below 10 µM.
In the case of `CCNC(=O)CCCOc1cc(C(=O)NCC(C)(C)C)ccc1-c1cc(C(=O)NC2CC2)cc(F)c1C` it was below 10 µM.
The compound `COc1cc(C(=O)NCC(C)C)ccc1-c1cc(C(=O)NC2CC2)cc(F)c1C` displayed an IC50 below 10 µM.
In the case of `COc1cc(C(=O)N[C@H](C)C(C)(C)C)ccc1-c1cc(C(=O)NC2CC2)cc(F)c1C` it was below 10 µM.
In the case of `Cc1c(F)cc(C(=O)NC2CC2)cc1-c1ccc(C(=O)NCC2CC2)cc1O` it was below 10 µM.
With `Cc1c(F)cc(C(=O)NC2CC2)cc1-c1ccc(C(=O)NCC(C)(C)C)cc1OCCCN(C)C`, the IC50 was below 10 µM.
In the case of `Cc1c(F)cc(C(=O)NC2CC2)cc1-c1ccc(C(=O)NCC(C)(C)C)cc1OCCCC(=O)N(C)C` it was below 10 µM; in that of `Cc1ccc(C(=O)NC2CC2)cc1-c1ccc(C(=O)NCC(C)(C)C)cc1OCCCNCCO`, below 10 µM; in that of `Cc1c(F)cc(C(=O)NC2CC2)cc1-c1ccc(C(=O)N[C@H](C)C(C)C)cc1O`, below 10 µM.
In the case of `Cc1c(F)cc(C(=O)NC2CC2)cc1-c1ccc(C(=O)NCC(C)(C)C)cc1O` it was below 10 µM; in that of `COCOc1cc(C(=O)NCc2ccc(OC)cc2)ccc1-c1cc(C(=O)NC2CC2)cc(F)c1C`, below 10 µM.

These data come from the Kinase Knowledgebase extract (Sharma et al. 2016).
